In US11976076B1 (priority 2023, dated 2024):
Converted amounts (≈) assume the structure as drawn.

The molecules below were run on multidrug-resistant (MDR) strains of Mycobacterium tuberculosis (assay: microbe, parasite or virus in culture). Conditions: 192 h, read-out: Anti-tubercular activity (MIC) MDR-TB.
Type: cell-based

Row | SMILES | MIC [µg/mL]
1 | O=c1[nH]c(=S)[nH]c2[nH]c(=S)nc(-c3c[nH]c4ccccc34)c12 [Compound 4b, 5-(1H-Indol-3-yl)-2,7-dithioxo-2,3,7,8-tetrahydropyrimido[4,5-d]pyrimidin-4(1H)-one] | 8 (≈ 24.4 µM)
2 | Cn1c(=O)c2c(-c3c[nH]c4ccccc34)nc(=S)[nH]c2n(C)c1=O [Compound 4c, 5-(1H-Indol-3-yl)-1,3-dimethyl-7-thioxo-7,8-dihydropyrimido[4,5-d]pyrimidine-2,4(1H,3H)-dione] | 4 (≈ 11.8 µM)
3 | O=c1[nH]c(=O)c2c(-c3c[nH]c4ccccc34)nc(=S)[nH]c2[nH]1 [Compound 4a, 5-(1H-Indol-3-yl)-7-thioxo-7,8-dihydropyrimido[4,5-d]pyrimidine-2,4(1H,3H)-dione] | 16 (≈ 51.4 µM)
